# In ChEMBL document CHEMBL1201862, “PubChem BioAssay data set” (2004):
# Activity calls are given as the source filed them.
# Key:
# [1] = test system: Jurkat; assay: antigen receptor-induced NF-kB inhibitors, dose response, Jurkat, luciferase reporter, luminescence, B- and T-cell (AID 489004); format: functional, cell-based; conditions: Homo sapiens;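 also: NF-kB luciferase reporter Jurkat cells stimulated with PMA plus ionomycin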
# [2] = cytotoxicity in HEK-293T NF-kB-Luc cells, dose response, cytotoxicity control for B/T-cell NF-kB inhibitor project, cell-based, uHTS hits (AID 489019); format: functional;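 also: IC50 reflects cytotoxicity as loss of cell viability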
# [3] = Shn3 3'UTR reporter inhibitors, dose response, cell-based, Clone20 osteoblasts, firefly luciferase, cherry-picked (AID 624132); format: functional;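 also: firefly luciferase luminescence from reporter carrying the Shn3 3'UTR in osteoblasts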
# [4] = HepG2 cell cytotoxicity, dose response, cytotoxicity control for Shn3 inhibitor project, CellTiter-Glo, cherry-picked (AID 624134); format: functional, cell-based
# [5] = control 3'UTR Renilla luciferase suppression, dose response, counter-screen for Shn3 inhibitor project, cell-based, Clone20-Shn3RL, cherry-picked (AID 624133); format: functional
# [6] = molecular target: T1, ORF 73 (Human herpesvirus 8, UniProt O40947); assay: inhibitors of C-LANA binding to LBS DNA, dose response, biochemical, fluorescence polarization, cherry-picked samples (AID 504725); parameters: species or system Human gammaherpesvirus 8;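 also: fluorescence polarization of a labeled DNA duplex reporting LANA DNA binding; potency is for inhibitors that block LANA binding to the DNA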
# T1 sequence (O40947 whole entry): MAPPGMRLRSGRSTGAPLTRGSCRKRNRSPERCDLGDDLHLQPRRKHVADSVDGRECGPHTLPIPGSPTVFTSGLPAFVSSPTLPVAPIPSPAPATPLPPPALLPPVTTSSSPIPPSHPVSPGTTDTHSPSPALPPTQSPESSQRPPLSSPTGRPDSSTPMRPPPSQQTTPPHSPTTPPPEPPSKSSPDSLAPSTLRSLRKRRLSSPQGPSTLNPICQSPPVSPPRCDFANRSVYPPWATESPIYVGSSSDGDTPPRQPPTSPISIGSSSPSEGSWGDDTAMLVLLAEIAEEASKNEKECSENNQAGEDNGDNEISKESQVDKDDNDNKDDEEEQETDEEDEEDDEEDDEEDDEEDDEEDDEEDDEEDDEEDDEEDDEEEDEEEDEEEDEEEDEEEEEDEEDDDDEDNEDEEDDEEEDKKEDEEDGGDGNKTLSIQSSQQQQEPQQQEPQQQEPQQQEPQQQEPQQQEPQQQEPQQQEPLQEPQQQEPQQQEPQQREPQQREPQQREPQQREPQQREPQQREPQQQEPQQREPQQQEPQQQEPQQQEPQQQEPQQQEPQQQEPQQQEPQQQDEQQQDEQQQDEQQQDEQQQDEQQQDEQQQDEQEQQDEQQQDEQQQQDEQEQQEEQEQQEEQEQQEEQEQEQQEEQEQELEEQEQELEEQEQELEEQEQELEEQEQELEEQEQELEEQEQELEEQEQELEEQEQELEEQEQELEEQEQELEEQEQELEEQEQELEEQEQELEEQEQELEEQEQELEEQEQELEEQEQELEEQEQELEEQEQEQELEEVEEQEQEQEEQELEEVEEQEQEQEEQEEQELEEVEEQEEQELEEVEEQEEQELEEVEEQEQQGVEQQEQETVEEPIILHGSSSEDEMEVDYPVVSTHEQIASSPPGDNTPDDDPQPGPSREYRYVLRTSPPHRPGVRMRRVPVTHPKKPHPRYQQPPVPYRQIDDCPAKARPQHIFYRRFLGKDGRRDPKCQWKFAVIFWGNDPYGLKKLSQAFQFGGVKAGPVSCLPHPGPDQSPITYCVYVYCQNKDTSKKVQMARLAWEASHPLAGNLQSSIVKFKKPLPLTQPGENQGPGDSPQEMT
# [7] = molecular target: UDP-galactopyranose mutase (Mycobacterium tuberculosis, UniProt P9WIQ1); assay: Inhibitors of Mycobacterium tuberculosis UDP-galactopyranose mutase (UGM) enzyme Measured in Biochemical System Using Plate Reader - 2105-02_Inhibitor_Dose_CherryPick_Activity. [Related pubchem assays (depositor defined):AID504439]
# [8] = molecular target: Keap1/Nrf2 (Homo sapiens, UniProt Q14145); assay: Keap1-Nrf2 protein-protein interaction inhibitors, dose response, biochemical, fluorescence polarization, cherry-picked samples (AID 588683)
# [9] = molecular target: T2, CAAX prenyl protease 2 (Homo sapiens, UniProt Q9Y256); assay: human Rce1 protease inhibitors, dose response, biochemical, yeast membranes, quenched-peptide fluorescence, cherry-pick (AID 588849)
# T2 sequence (Q9Y256 whole entry): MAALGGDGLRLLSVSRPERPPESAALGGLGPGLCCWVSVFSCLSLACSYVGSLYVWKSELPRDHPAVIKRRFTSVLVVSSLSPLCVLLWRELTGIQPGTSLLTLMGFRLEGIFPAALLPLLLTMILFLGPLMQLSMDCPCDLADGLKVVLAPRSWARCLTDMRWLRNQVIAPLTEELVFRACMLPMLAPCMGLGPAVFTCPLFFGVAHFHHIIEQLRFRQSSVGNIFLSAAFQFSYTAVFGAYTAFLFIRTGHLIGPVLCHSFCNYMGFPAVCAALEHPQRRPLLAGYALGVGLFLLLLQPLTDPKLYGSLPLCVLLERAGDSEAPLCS
# [10] = molecular target: T3, High affinity choline transporter 1 (Homo sapiens, UniProt Q9GZV3); assay: CHT inhibitors, dose response, cell-based, 5-point CRC, membrane potential dye (AID 504840); format: functional
# T3 sequence (Q9GZV3 whole entry): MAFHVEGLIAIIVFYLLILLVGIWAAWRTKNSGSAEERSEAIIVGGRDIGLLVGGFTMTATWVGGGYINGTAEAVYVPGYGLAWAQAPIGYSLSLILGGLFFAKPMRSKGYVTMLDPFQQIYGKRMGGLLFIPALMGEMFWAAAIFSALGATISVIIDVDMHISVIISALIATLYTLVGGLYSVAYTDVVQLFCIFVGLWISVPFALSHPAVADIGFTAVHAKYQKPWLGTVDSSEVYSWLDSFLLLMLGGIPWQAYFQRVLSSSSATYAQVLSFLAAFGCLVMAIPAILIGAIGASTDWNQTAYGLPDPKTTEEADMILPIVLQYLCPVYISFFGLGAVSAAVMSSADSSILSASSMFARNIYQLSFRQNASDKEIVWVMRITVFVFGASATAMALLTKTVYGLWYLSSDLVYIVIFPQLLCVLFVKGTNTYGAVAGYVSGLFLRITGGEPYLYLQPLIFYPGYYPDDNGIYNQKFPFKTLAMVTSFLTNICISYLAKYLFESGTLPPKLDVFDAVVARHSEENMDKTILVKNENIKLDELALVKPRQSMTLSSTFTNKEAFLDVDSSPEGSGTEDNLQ
# [11] = molecular target: T4, Corticotropin-releasing factor receptor 2/Corticotropin-releasing factor-binding protein (Homo sapiens, UniProt P24387+Q13324); assay: Dose Response confirmation of uHTS hits for small molecule antagonists of the CRF-binding protein and CRF-R2 receptor complex.; format: functional; conditions: read-out: IC50_Mean
# T4 sequence (Q13324 whole entry): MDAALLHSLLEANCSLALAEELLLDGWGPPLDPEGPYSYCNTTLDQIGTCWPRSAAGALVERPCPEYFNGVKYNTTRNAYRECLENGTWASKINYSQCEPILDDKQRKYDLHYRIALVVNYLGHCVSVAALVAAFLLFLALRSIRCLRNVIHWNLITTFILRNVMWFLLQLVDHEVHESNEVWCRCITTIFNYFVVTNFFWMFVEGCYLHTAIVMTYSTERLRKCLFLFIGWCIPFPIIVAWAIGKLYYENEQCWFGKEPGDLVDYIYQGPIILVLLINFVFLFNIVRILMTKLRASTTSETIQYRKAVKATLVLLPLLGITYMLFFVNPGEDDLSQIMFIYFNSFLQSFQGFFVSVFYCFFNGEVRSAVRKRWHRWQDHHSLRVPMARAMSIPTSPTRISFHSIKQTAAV
# T4 sequence (P24387 whole entry): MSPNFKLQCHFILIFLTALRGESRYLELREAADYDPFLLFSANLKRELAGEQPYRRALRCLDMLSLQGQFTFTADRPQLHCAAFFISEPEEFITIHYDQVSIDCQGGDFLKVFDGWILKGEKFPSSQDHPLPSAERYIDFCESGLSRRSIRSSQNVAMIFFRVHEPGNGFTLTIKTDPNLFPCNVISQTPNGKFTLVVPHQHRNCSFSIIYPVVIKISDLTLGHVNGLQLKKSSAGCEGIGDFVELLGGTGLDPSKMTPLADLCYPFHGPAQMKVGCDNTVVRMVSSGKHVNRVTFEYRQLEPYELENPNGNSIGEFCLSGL
# [12] = molecular target: T4, Corticotropin-releasing factor receptor 2/Corticotropin-releasing factor-binding protein; assay: activators of CRF receptor 2 with binding protein – uHTS hits, confirmation (AID 602473); format: functional; conditions: read-out: EC50_Mean
# [13] = inhibitors of PGC1a acetylation in cells, dose response, cell-based, cherry-picked samples (AID 720514); format: functional;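 also: potency may reflect raised or lowered acetylation signal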
# [14] = cells; format: functional, cell-based
# [15] = Luminescence Cell-Based Dose Response HTS to Identify Inhibitors of 5'UTR Stem-Loop Driven Prion Protein mRNA Translation in H4 Neuroglioblastoma Cells. [Related pubchem assays: 1827 (Project Summary), 1813 (Primary HTS)]; format: functional
# [16] = microbe, parasite or virus in culture; format: functional; conditions: Mycobacterium tuberculosis
# [17] = cells; format: functional, cell-based; remark: listed apart in the source
# [18] = molecular target: T5, Calpain-2 catalytic subunit (Sus scrofa, UniProt P43367); assay: pig calpain II inhibitor potency, dose response, biochemical, fluorogenic peptide substrate (AID 1420); format: functional
# T5 sequence (P43367 whole entry): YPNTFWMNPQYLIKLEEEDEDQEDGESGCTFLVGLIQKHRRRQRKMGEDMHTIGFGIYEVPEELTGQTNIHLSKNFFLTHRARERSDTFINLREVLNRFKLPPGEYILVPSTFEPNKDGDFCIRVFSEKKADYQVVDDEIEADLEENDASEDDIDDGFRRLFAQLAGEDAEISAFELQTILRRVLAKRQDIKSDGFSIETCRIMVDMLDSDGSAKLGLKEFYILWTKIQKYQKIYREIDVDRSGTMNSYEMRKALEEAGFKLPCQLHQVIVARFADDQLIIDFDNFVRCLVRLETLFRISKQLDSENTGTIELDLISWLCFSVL
# [19] = molecular target: Troponin, cardiac muscle (Homo sapiens, UniProt P19429+P45379+P63316); assay: Fluorescence-based biochemical high throughput dose response assay for activators of the calcium sensitivity of cardiac Regulated Thin Filaments (RTF). [Related pubchem assays (depositor defined):AID493008, AID493018, AID504382, AID504383]; format: protein-complex assay
# [20] = molecular target: Heat shock protein HSP 90-alpha (Homo sapiens, UniProt P07900); format: functional, organism-based
# [21] = HeLa cell cytotoxicity, dose response, cytotoxicity control for MgcRacGAP inhibitor project (AID 624300); format: functional
# [22] = molecular target: T6, Rac GTPase-activating protein 1 (Homo sapiens, UniProt Q9H0H5); assay: MgcRacGAP GTPase-activating activity inhibitors, confirmation, biochemical, ADP Hunter fluorescence, primary and confirmatory (AID 624330); format: functional
# T6 sequence (Q9H0H5 whole entry): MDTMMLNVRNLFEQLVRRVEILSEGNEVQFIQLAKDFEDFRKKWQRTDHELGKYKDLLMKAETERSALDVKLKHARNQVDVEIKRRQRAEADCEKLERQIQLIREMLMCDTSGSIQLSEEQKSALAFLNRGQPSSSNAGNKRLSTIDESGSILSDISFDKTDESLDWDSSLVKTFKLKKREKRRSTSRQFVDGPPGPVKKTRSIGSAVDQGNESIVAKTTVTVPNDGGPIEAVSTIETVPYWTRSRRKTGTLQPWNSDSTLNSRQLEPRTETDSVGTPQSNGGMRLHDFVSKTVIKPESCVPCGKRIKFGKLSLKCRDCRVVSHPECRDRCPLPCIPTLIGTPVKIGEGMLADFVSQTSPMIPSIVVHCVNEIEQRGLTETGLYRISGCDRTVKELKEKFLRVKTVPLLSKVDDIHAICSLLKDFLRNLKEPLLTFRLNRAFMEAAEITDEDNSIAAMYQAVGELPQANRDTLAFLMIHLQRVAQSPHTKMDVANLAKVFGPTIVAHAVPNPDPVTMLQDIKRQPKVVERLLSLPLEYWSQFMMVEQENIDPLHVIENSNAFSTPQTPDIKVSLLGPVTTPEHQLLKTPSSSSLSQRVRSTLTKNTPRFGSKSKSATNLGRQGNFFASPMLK
# [23] = molecular target: T7, COUP transcription factor 2 (Homo sapiens, UniProt P24468); assay: Luminescence-based cell-based high throughput dose response assay to identify inhibitors of COUP-TFII (NR2F2).; format: functional;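 also: HEK293 cells transiently cotransfected with COUP-TFII expression vector and reporter; luciferase reporter luminescence driven by COUP-TFII from the pX2-168 reporter plasmid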
# T7 sequence (P24468 whole entry): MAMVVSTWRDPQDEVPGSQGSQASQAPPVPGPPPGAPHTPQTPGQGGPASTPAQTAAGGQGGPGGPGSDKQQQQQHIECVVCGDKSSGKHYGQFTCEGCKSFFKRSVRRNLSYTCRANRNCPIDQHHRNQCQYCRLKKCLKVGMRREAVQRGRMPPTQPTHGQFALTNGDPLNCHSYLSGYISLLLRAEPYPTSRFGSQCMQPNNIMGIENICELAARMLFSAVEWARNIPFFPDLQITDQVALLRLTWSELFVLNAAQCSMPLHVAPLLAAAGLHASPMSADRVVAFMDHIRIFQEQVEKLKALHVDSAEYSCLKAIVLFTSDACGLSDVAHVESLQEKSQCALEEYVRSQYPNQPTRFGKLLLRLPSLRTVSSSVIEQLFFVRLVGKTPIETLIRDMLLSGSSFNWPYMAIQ
# Chain of Keap1/Nrf2 (Q16236 whole entry): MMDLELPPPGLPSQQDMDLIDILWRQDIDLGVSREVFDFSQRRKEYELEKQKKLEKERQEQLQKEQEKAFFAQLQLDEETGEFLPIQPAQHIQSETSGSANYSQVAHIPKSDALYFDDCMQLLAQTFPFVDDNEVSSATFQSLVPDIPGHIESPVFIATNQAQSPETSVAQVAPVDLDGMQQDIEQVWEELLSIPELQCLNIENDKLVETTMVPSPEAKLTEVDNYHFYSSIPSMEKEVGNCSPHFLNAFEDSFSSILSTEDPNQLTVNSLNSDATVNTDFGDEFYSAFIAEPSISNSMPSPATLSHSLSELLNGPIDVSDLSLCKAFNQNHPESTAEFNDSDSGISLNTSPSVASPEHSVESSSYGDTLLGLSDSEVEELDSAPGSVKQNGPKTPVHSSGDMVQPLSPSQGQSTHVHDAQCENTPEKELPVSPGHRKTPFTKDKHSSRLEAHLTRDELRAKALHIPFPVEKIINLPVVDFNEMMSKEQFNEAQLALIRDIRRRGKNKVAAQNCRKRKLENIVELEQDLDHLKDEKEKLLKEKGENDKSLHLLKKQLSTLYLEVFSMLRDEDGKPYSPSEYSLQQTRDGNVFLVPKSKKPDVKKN
# Chain of Keap1/Nrf2 (Q14145 whole entry): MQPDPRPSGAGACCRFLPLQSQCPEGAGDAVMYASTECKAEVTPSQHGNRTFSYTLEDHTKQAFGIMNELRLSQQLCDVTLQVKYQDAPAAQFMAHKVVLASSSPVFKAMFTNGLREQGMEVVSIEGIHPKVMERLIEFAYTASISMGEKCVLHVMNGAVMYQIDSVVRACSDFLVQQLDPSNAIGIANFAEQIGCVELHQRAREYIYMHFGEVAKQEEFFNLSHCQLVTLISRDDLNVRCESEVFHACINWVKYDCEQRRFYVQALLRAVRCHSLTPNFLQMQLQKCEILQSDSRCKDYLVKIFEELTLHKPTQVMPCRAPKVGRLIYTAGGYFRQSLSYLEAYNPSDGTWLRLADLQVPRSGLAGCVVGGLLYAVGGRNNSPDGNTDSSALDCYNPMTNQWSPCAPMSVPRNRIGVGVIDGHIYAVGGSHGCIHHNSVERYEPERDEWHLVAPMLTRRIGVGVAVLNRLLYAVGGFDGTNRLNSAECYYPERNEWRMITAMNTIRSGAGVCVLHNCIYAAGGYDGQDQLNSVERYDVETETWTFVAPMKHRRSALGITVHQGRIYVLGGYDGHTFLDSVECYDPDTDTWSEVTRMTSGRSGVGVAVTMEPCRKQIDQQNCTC
# Chain of UDP-galactopyranose mutase (P9WIQ1 whole entry): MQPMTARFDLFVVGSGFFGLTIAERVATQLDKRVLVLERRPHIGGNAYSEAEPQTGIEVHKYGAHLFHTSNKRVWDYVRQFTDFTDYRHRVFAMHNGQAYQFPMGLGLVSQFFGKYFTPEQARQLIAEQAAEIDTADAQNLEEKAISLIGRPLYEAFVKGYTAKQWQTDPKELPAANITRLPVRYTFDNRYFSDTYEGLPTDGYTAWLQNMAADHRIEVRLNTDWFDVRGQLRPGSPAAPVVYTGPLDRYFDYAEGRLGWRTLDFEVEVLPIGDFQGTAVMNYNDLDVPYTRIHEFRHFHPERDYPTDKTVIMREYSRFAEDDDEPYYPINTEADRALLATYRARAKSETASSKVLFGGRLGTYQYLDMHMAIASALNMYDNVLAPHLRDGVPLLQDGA
compound,measurement,setting,value
CC1(c2ccc3ccccc3c2)NC(=O)N(CC(=O)N2CCN(Cc3ccc(C#N)cc3)CC2)C1=O (stereo unspecified),IC50,[1],> 80 µM (inactive)
same,IC50,[2],> 80 µM (inactive)
same,AC50,[3],0.416 µM (active)
same,AC50,[4],< 0.26 µM (active)
same,AC50,[5],1.04 µM (active)
Nc1ccc2nc3c(=O)n(C4CCCCC4)c(=O)[nH]c3nc2c1,AC50,[6],1.42 µM (active)
same,AC50,[7],2.64 µM (active)
same,AC50,[8],9.04 µM (active)
CC(=O)NN1C(=O)c2ccccc2NC1c1ccccc1 (stereo unspecified),AC50,[9],> 100 µM (inactive)
O=c1[nH]c(=O)n(-c2ccc(F)cc2)c2c1C(C(F)(F)F)(C(F)(F)F)N=C(c1ccc(F)cc1)N2,IC50,[10],12 µM (active)
same,IC50,[11],4.69 µM (active)
same,EC50,[12],> 53 µM (inactive)
Cc1cccc(NS(=O)(=O)c2cccc(C(=O)NCC(c3ccco3)N3CCCCC3)c2)c1 (stereo unspecified),IC50,[10],22 µM (active)
same,AC50,[13],32.2 µM (active)
CCN1/C(=C/c2ccc3cc(C)ccc3[n+]2CC)Sc2ccccc21,EC50,[14],> 350 µM (not active)
same,EC50,[15],> 120 µM (not active)
same,CC50,[16],1.92 µM (active)
same,EC50,[17],> 350 µM (not active)
same,IC50,[18],16.4 µM (not active)
same,IC50,[1],2.6 µM (active)
same,EC50,[19],10.4 µM (inactive)
same,IC50,[2],> 80 µM (inactive)
same,AC50,[20],7.73 µM (active)
same,CC50,[21],12.5 µM (active)
same,IC50,[22],59.5 µM (active)
same,IC50,[23],1.55 µM (active)
